What was measured:
[1] = system: SHIV AD8-EO-infected rhesus macaques; test: Complete blood counts and flow cytometry immunophenotyping of PBMCs in SHIV AD8-EO-infected RMs after BNM-III-170; format: in vivo, Macaca mulatta
Method: In addition to monitoring blood chemistries, complete blood counts (CBCs) were performed immediately prior to BNM-III-170 treatment and at several post-treatment timepoints (Fig. 4A). Significant increases in white blood cell counts (WBCs) were observed between 0 h and 24 h after the terminal dose of each treatment cycle (median WBCs: 7,550 and 12,595, respectively, P-value = 0.0391). This increase in WBCs was largely attributed to increases in neutrophils (median counts at 0 h vs. 24 h of 2,926 and 8,004, P-value = 0.0078) and, to a lesser extent, monocytes (median counts at 0 h vs 24 h after the terminal dose of 696 and 1,537, P-value = 0.0391). […] Of note, this lymphopenia was generally transient (Fig. S5).
To further investigate this observed lymphopenia, multiparameter flow cytometry was performed on PBMCs from 0 h and 24 h post-terminal dose timepoints from all treatment cycles (Fig. S6). […] While the exact cause of this non-specific lymphopenia is unknown, it may be due to depletion of lymphocytes or migration of lymphocytes to tissue; the latter explanation is more consistent with the transient nature of the lymphopenia.
A 20-parameter flow cytometric analysis was performed on fresh PBMCs and mononuclear cells (10^6 cells) derived from LN biopsies using anti-human monoclonal Abs (mAbs), which we ([6], [58][–][60]) and others, including databases maintained by the NHP Reagent Resource (MassBiologics), have shown as being cross-reactive in RMs. […] All samples were fixed with 1% paraformaldehyde and acquired within 24 h of fixation. Acquisition of data was performed on a FACSymphony A5 (BD Biosciences) driven by FACS DiVa software and analyzed with FlowJo (version 10.7; Becton, Dickinson, and Company).

[2] = system: CH058TF-infected CEM.NKr cells; format: cell-based, HIV-1; details: 50 μM added BNM-III-170 vs absence
Method: Cell surface staining was performed at 48 h post-infection. Mock-infected or HIV-1-infected CEM.NKr or primary CD4+ T cells were incubated for 45 min at 37°C with anti-Env mAbs (5 µg/mL), plasma from PWH (1:1,000 dilution), or plasma from infected RMs (1:500). When indicated, antibody/plasma incubation was done in the presence of 50 µM of BNM-III-170, or equivalent amounts of DMSO. To evaluate the capacity of plasma from SHIV-AD8-EO-infected RMs treated with BNM-III-170 to recognize HIV-1-infected cells, a 1:10 plasma dilution was used. Cells were then washed twice with PBS and stained with the appropriate Alexa Fluor 647-conjugated secondary antibody (2 µg/mL) for 20 min and the viability dye AquaVivid (Thermo Fisher Scientific) at room temperature. Cells were then washed twice with PBS and fixed in a 2% PBS-formaldehyde solution. […]
Measurement of ADCC using the FACS-based assay was performed at 48 h post-infection, as previously described. […] The percentage of ADCC was calculated with the following formula: (% of p24+/p27+ cells in Targets plus Effectors) − (% of p24+/p27+ cells in Targets plus Effectors plus Abs) / (% of p24+/p27+ cells in Targets) by gating on infected live target cells.

[3] = system: CEM.NKr-CCR5-sLTR-Luc cells infected with SHIV AD8-EO; format: cell-based
SHIV AD8-EO = test: Plasma viral loads (RT-qPCR) in SHIV AD8-EO-infected RMs during BNM-III-170 treatment; format: in vivo, Macaca mulatta
Method: Next, we evaluated the ability of BNM-III-170 to reduce viral replication in these animals, measuring plasma viral loads (PVLs) at multiple timepoints during and immediately following each BNM-III-170 treatment cycle. PVLs declined by 0.92 logs in animal 14C056 following the 3 × 36 mg/kg, 3-day interval treatment cycle (between 0 h of the first dose and 9 days post third dose). […] Importantly, given the small number of animals and absence of untreated controls, it is difficult to determine if the observed reduction in PVLs in animal 14C056 was due to BNM-III-170 treatment or to the natural course of SHIV AD8 EO-infection. This highlights the need for additional, larger studies that include an untreated control arm to more accurately determine the virologic impact of BNM-III-170 on SHIV in vivo.
Plasma SHIV viral loads (SHIV-RNA copies/mL) were determined as previously described ([61]) using quantitative reverse transcription PCR (RT-qPCR) assays with a limit of detection of 60 copies/mL.

For `CNCc1ccc2c(c1)C[C@H](CN=C(N)N)[C@H]2NC(=O)C(=O)Nc1ccc(Cl)c(F)c1.O=C(O)C(F)(F)F.O=C(O)C(F)(F)F` [BNM-III-170], the “white blood cell counts (WBCs), median” value ([1]; 24 h after terminal dose of each treatment cycle, 0 h median 7,550, P-value = 0.0391) was 12,595, the “monocytes, median counts” value ([1]; 24 h after terminal dose, 0 h median 696, P-value = 0.0391) was 1,537 and the “neutrophils, median counts” value ([1]; 24 h after terminal dose, 0 h median 2,926, P-value = 0.0078) was 8,004. For the same compound, the “absolute numbers of NK cells, median” value ([1]; 24 h post-terminal dose, 0 h median 191, P = 0.0078) was 48 cells per μL blood, the “absolute numbers of CD4+ T cells, median” value ([1]; 24 h post-terminal dose, 0 h median 496, P = 0.0078) was 283 cells per μL blood and the “absolute numbers of CD8+ T cells, median” value ([1]; 24 h post-terminal dose, 0 h median 1,084, P = 0.0078) was 323.5 cells per μL blood. The “absolute numbers of B cells, median” value ([1]; 24 h post-terminal dose, 0 h median 1,129, P = 0.0391) was 1,080 cells per μL blood, the “lymphocyte frequency in whole blood” value ([1]; 24 h post-terminal dose, 49% at 0 h, P = 0.0078) was 19.5% and the “lymphocyte numbers in whole blood” value ([1]; 24 h post-terminal dose, 3,774 at 0 h, P = 0.0078) was 2,068. The “ADCC activity of Abs in 0 h RM plasma against infected cells” value [2] was “significantly increased”, the “binding of Abs in 0 h RM plasma to infected cells” value [2] was “significantly increased” and the “binding of plasma from PWH to infected cells” value [3] was “enhance binding of plasma from PWH”. For the same compound, the “decline in plasma viral loads (PVLs)” value (SHIV AD8-EO; animal 14C056, 3 × 36 mg/kg SQ, 3-day interval, between 0 h of first dose and 9 days post third dose, no untreated controls) was 0.92 logs and the “change in plasma viral loads (PVLs)” value (SHIV AD8-EO; animals 14C013, RYj17, 34901, following BNM-III-170 treatments) was “no similar changes in PVLs were observed”.
